Literature values, collected in patent publication US20050065219A1, “Treatment of demyelinating conditions” (priority 2003, published 2005).

What was measured:
[1] = tested on: nicotinic acetylcholine receptors; details: Masou et al. 1986
[2] = biological target: PCP and MK-801 binding sites of the NMDA receptor (Homo sapiens, UniProt Q05586); details: postmortem human frontal cortex, at therapeutic concentrations (Kornhuber et al. 1989)
[3] = tested on: cortical and retinal neuron cultures; details: cortical and retinal neuron cultures (Deyer et al. 1990)
[4] = tested on: 5-hydroxytryptamine 5-HT3 receptors; details: Reiser et al. 1988
[5] = clinical use for many years (Kornhuber et al. 1994)
[6] = rats (Keilhoff et al. 1992)
[7] = biological target: brain membranes ([3H]dizocilpine site) (Homo sapiens, UniProt Q05586); details: Chen et al. 1992
NMDA receptor channel = NMDA receptor channel (Homo sapiens, UniProt Q05586); details: Bormann 1989

block of nicotinic acetylcholine receptors [1]: blocks
binding to PCP and MK-801 binding sites of the NMDA receptor [2]: binds
block of 5-HT3 receptors [4]: blocks
[3H]dizocilpine binding to brain membranes [7]: inhibits
antagonism of the NMDA receptor channel (NMDA receptor channel): micromolar antagonist
Structure (SMILES): CC12CC3CC(C)(C1)CC(N)(C3)C2 [memantine, 1-amino-3,5-dimethyladamantane]
protection from toxicity of glutamate, NMDA and HIV-1 coat protein gp120 [3]: protects
tolerability in clinical use [5]: well tolerated
quinolic acid-induced hippocampal damage [6]: prevents
